The record followed here is patent US20260263616A1, “NOVEL HE[…] USE THEREOF” (PINOTBIO, INC., priority 2023, published 2026).

Structures are written as SMILES. Square brackets hold non-standard residues; d marks the D form. Peptide text beside a SMILES is read from it. * marks the point of attachment. Dolaproine = CO[C@@H]([C@@H]1CCCN1)[C@@H](C)C(=O)O; Dil = CC[C@H](C)[C@H](NC)[C@@H](CC(=O)O)OC; X1 = C[C@@H](N*)[C@@H](O)c1ccccc1; NMeV = CN[C@H](C(=O)O)C(C)C

Test [1] relates to head and neck squamous cell carcinoma cell line (FaDu). The test is described as follows: Cell viability assay (CellTiter-Glo), FaDu. It counts as cell-based. The settings on record: for IC50: FaDu cells, 3 days incubation, CellTiter-Glo luminescence, 50% of untreated control. The protocol: (§1) FaDu or A549 cell lines were seeded into 96-well plates at a density of 3,000 cells per well and incubated at 37° C., 5% CO2. After 24 hours, 100 μL of drug at 9 concentrations (from 1000 nM, serially diluted 1/5) was added to the cell line. As the drugs, the compound of Chemical Formula 2 prepared according to Example 1, SC209 (MedChemExpress), and MMAE were treated, and at this time, a control group (drug concentration 0) without drug treatment was also prepared. After incubation under incubator conditions (37° C., 5% CO2) for 3 days, 100 µL of
(§2) CellTiter-Glo reagent (using CellTiter-Glo® Luminescent Cell Viability Assay kit (Promega, G7571)) was added to each well of the plate, followed by pipetting. After incubation for 10 minutes (RT), luminescence was measured, and when the luminescence value at drug concentration 0 is regarded as 100%, the concentration showing 50% luminescence value is the IC50 value.
Background: Cellular ATP, detected with luciferase, serves as a proxy for viable cell number.

In test [2] the test system is lung cancer cell line (A549). The test is described as follows: Cell viability assay (CellTiter-Glo), A549. It counts as cell-based. The settings on record: for IC50: A549 cells, 3 days incubation, CellTiter-Glo luminescence, 50% of untreated control. The protocol:
as §1, §2

With `CN[C@H](C(=O)N[C@H](C(=O)N(C)[C@H](/C=C(\C)C(=O)O)C(C)C)C(C)(C)C)C(C)(C)c1ccc(OC)c(N)c1` [Compound of Chemical Formula 2], the “cell viability compared with SC209 and MMAE” value in test [1] (FaDu cell line, 3 days treatment) is “decreased to a level similar to that observed with SC209 and MMAE treatment”; in test [2] (lung cancer cell line (printed A529), 3 days treatment), “decreased to a level similar to that observed with SC209 and MMAE treatment”. The IC50 – broadly, the concentration that gives 50% inhibition – in test [1] (Homo sapiens, 72 h) is 6.17 nM; in test [2] (Homo sapiens, 72 h), 22.6 nM.
As to `CC[C@H](C)[C@@H]([C@@H](CC(=O)N1CCC[C@H]1[C@H](OC)[C@@H](C)C(=O)N[C@H](C)[C@@H](O)c1ccccc1)OC)N(C)C(=O)[C@@H](NC(=O)[C@@H](NC)C(C)C)C(C)C` [MMAE, reference compound] (H-[NMeV]V[Dil][Dolaproine]-X1), the IC50 in test [1] was found to be 1.57 nM; in test [2], 3.72 nM.
